# Laboratory results reported in patent US7495100B2, “Synthesis of indenoisoquinolines” (Purdue Research Foundation, priority 2004, dated 2009).
# Read-outs that look alike come from different tables or passages of the source.
# Key:
# HOP-62 = assay: NCI screen antiproliferative activity, lung HOP-62; assay type: cell-based, human; conditions: concentration corresponding to 50% growth inhibition, read-out: cytotoxicity GI50 lung HOP-62
# Method: (§1) The indenoisoquinolines described herein were examined for antiproliferative activity against the human cancer cell lines in the National Cancer Institute screen, in which the activity of each compound was evaluated with approximately 55 different cancer cell lines of diverse tumor origins. The MGM is based on a calculation of the average GI50 for all of the cell lines tested (approximately 55) in which GI50 values below and above the test range (10^−8 to 10^−4 molar) are taken as the minimum (10^−8 molar) and maximum (10^−4 molar) drug concentrations used in the screening test. The relative potencies of the compounds described herein in the production of topoisomerase I-mediated DNA cleavage are also listed in Table 1.
# HCT-116 = assay: NCI screen antiproliferative activity, colon HCT-116; assay type: cell-based, human; conditions: concentration corresponding to 50% growth inhibition, read-out: cytotoxicity GI50 colon HCT-116
# Method: as §1
# SF-268 = assay: NCI screen antiproliferative activity, CNS SF-268; assay type: cell-based, human; conditions: concentration corresponding to 50% growth inhibition, read-out: cytotoxicity GI50 CNS SF-268
# Method: as §1
# UACC-62 = assay: NCI screen antiproliferative activity, melanoma UACC-62; assay type: cell-based, human; conditions: concentration corresponding to 50% growth inhibition, read-out: cytotoxicity GI50 melanoma UACC-62
# Method: as §1
# OVCAR-3 = assay: NCI screen antiproliferative activity, ovarian OVCAR-3; assay type: cell-based, human; conditions: concentration corresponding to 50% growth inhibition, read-out: cytotoxicity GI50 ovarian OVCAR-3
# Method: as §1
# SN12C = assay: NCI screen antiproliferative activity, renal SN12C; assay type: cell-based, human; conditions: concentration corresponding to 50% growth inhibition, read-out: cytotoxicity GI50 renal SN12C
# Method: as §1
# DU-145 = assay: NCI screen antiproliferative activity, prostate DU-145; assay type: cell-based, human; conditions: concentration corresponding to 50% growth inhibition, read-out: cytotoxicity GI50 prostate DU-145
# Method: as §1
# MDA-MB-435 = assay: NCI screen antiproliferative activity, breast MDA-MB-435; assay type: cell-based, human; conditions: concentration corresponding to 50% growth inhibition, read-out: cytotoxicity GI50 breast MDA-MB-435
# Method: as §1
# [1] = system: human cancer cell lines in the National Cancer Institute screen; assay: NCI screen mean graph midpoint over approximately 55 cancer cell lines; assay type: cell-based; conditions: for MGM (mean graph midpoint for growth inhibition): average GI50 of all human cancer cell lines tested (approximately 55), test range 10^-8 to 10^-4 molar
# Method: as §1
# topoisomerase I (top1) = biological target: T1, topoisomerase I (top1) (Homo sapiens, UniProt P11387); assay: topoisomerase I-mediated DNA cleavage; assay type: biochemical; parameters: key: +: weak activity; ++: similar activity as the parent compound 25; +++: greater activity than the parent compound 25; ++++: similar activity as 1 μM camptothecin; conditions: tested at concentrations ranging up to 10 μM; semi-quantitative
# T1 sequence (P11387 1-765): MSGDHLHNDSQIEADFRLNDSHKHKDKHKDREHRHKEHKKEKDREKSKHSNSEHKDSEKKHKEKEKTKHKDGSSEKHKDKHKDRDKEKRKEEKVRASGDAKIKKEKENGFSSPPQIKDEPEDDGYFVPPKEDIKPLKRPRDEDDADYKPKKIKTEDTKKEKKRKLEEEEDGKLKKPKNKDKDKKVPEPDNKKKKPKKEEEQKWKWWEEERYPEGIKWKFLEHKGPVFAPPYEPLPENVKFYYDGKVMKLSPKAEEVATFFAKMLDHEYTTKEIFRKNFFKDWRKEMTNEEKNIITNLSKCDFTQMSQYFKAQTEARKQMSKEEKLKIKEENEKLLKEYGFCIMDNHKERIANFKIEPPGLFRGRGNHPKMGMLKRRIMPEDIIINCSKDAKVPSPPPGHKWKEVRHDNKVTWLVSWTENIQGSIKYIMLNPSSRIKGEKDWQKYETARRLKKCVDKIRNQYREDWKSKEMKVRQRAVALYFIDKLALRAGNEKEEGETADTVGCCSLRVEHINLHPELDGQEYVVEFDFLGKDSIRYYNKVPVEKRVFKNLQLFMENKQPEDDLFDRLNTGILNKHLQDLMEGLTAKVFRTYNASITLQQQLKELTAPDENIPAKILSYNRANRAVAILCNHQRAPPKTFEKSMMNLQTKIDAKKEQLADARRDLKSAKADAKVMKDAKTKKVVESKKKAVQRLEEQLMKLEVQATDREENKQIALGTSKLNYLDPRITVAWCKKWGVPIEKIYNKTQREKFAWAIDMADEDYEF
# Method: as §1
# [2] = average GI50 of all cell lines tested
Top 1 Cleavage (topoisomerase I (top1)),SMILES,GI50 (HOP-62),GI50 (HCT-116),GI50 (SF-268),GI50 (UACC-62),GI50 (OVCAR-3),GI50 (SN12C),GI50 (DU-145),GI50 (MDA-MB-435),"activity (MGM) [1, 2]",MGM (mean graph midpoint for growth inhibition) [1],"GI50 (HOP-62; Homo sapiens, HOP-62)","GI50 (HCT-116; Homo sapiens, HCT-116)","GI50 (SF-268; Homo sapiens, SF-268)","GI50 (UACC-62; Homo sapiens, UACC-62)","GI50 (SN12C; Homo sapiens, SN12C)","GI50 (DU-145; Homo sapiens, DU-145)","GI50 (MDA-MB-435; Homo sapiens, MDA-MB-435)","GI50 (OVCAR-3; Homo sapiens, OVCAR-3)","cytotoxicity (MGM) as stated in text [1, 2]"
+++,O=C1c2cc3c(cc2-c2c1c1ccc([N+](=O)[O-])cc1c(=O)n2CCCCl)OCO3 [Compound 15],410 nM,2400 nM,148 nM,229 nM,9.12 µM,132 nM,98 nM,1820 nM,,0.832 µM,,,,,,,,,
+++,CN1C(=O)c2cc([N+](=O)[O-])ccc2C2C(=O)c3cc4c(cc3C21)OCO4 (racemic) [Compound 14],158 nM,14 nM,24 nM,26 nM,0.03 µM,33 nM,50 nM,107 nM,,0.105 ± 0.007 µM,,,,,,,,,
+,O=C1c2cc3c(cc2C2C1c1ccc([N+](=O)[O-])cc1C(=O)N2CCCCl)OCO3 (racemic) [Compound 13],< 10 nM,< 10 nM,< 10 nM,< 10 nM,< 0.01 µM,< 10 nM,< 10 nM,< 10 nM,18 nm,0.018 ± 0.001 µM,,,,,,,,,
,[N-]=[N+]=NCCCn1c2c(c3ccc([N+](=O)[O-])cc3c1=O)C(=O)c1ccccc1-2 [Compound 23],,,,,,,,,,13.5 µM,> 100000 nM,8130 nM,79400 nM,44700 nM,72400 nM,> 100000 nM,> 100000 nM,,
,Cl.NCCCn1c2c(c3ccc([N+](=O)[O-])cc3c1=O)C(=O)c1ccccc1-2 [Compound 24],275 nM,85 nM,302 nM,372 nM,,102 nM,148 nM,,,0.245 µM,,,,,,,,,
0,O=C1c2ccccc2-c2c1c1ccc([N+](=O)[O-])cc1c(=O)n2CCCBr [Compound 20],,3450 nM,> 100000 nM,> 100000 nM,> 100 µM,> 100000 nM,> 100000 nM,> 100000 nM,,40 µM,,,,,,,,,
,O=C1c2ccccc2-c2c1c1ccc([N+](=O)[O-])cc1c(=O)n2CCCCl [Compound 22],,,,,,,,,,18.2 µM,43700 nM,3630 nM,23400 nM,20400 nM,26900 nM,40700 nM,31600 nM,4.9 µM,

SMILES,Top 1 Cleavage (topoisomerase I (top1)),GI50 (HOP-62),GI50 (HCT-116),GI50 (SF-268),GI50 (UACC-62),GI50 (OVCAR-3),GI50 (SN12C),GI50 (DU-145),GI50 (MDA-MB-435),"activity (MGM) [1, 2]",MGM (mean graph midpoint for growth inhibition) [1],"GI50 (HOP-62; Homo sapiens, HOP-62)","GI50 (HCT-116; Homo sapiens, HCT-116)","GI50 (SF-268; Homo sapiens, SF-268)","GI50 (UACC-62; Homo sapiens, UACC-62)","GI50 (SN12C; Homo sapiens, SN12C)","GI50 (DU-145; Homo sapiens, DU-145)","GI50 (MDA-MB-435; Homo sapiens, MDA-MB-435)","GI50 (OVCAR-3; Homo sapiens, OVCAR-3)","cytotoxicity (MGM) as stated in text [1, 2]"
O=C1c2cc3c(cc2C2C1c1ccc([N+](=O)[O-])cc1C(=O)N2CCCBr)OCO3 (racemic) [Compound 12],+,< 10 nM,< 10 nM,< 10 nM,< 10 nM,< 0.01 µM,< 10 nM,< 10 nM,< 10 nM,16 nm,0.016 ± 0.003 µM,,,,,,,,,
Cl.Nc1ccc2c3c(n(CCCCl)c(=O)c2c1)-c1cc2c(cc1C3=O)OCO2 [Compound 18],0,,,> 100000 nM,> 100000 nM,> 100 µM,> 100000 nM,,> 100000 nM,,25 µM,,,,,,,,,
[N-]=[N+]=NCCCn1c2c(c3ccc([N+](=O)[O-])cc3c1=O)C(=O)c1cc3c(cc1-2)OCO3 [Compound 16],++++,< 10 nM,< 10 nM,< 10 nM,< 10 nM,< 0.01 µM,< 10 nM,< 10 nM,< 10 nM,,0.098 ± 0.06 µM,,,,,,,,,98 nM
